Reference: ChEMBL document CHEMBL1221220, “Transport and signaling via the amino acid binding site of the yeast Gap1 amino acid transceptor” (Nat Chem Biol, 2009)
Active and inactive are the calls of the source. No cut-off for these calls is given here. Non-standard residues stand in square brackets, D forms with d. Residues, ends and D or L forms follow the SMILES beside them. *: point of attachment. βNA = c1ccc2cc(N*)ccc2c1; βAla = NCCC(=O)O

biological target: T1, General amino-acid permease GAP1 (Saccharomyces cerevisiae) (UniProt P19145); assay: Competitive inhibition of nitrogen-starved wild type sigma1278b yeast Gap1-mediated amino acid uptake at 5 mM after 60 secs relative to L-citrulline; conditions: not given
T1 sequence (whole entry): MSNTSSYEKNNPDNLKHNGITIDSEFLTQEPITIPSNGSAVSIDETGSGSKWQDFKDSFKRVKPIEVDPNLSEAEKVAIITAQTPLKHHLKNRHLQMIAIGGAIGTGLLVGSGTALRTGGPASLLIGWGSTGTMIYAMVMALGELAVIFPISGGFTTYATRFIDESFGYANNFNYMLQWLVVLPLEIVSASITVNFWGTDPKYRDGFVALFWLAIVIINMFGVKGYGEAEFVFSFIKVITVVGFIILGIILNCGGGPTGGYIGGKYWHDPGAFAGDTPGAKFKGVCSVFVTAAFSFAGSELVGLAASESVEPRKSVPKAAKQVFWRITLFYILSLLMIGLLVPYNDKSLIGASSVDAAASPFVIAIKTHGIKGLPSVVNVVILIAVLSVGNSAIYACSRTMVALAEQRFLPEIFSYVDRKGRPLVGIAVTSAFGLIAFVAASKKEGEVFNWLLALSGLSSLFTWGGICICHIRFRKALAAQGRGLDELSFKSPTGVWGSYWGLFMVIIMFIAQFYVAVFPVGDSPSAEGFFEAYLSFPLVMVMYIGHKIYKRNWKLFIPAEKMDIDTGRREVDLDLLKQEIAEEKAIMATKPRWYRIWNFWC

Row | Compound | inhibition [%]
1 | N[C@@H](CC(=O)O)C(=O)N[C@@H](Cc1ccccc1)C(=O)O (H-Asp-Phe-OH) | > 30

biological target: T1, General amino-acid permease GAP1 (Saccharomyces cerevisiae); conditions: sigma1278b, at 5 mM
Description: Inhibition of nitrogen-starved wild type sigma1278b yeast Gap1-mediated amino acid uptake at 5 mM after 60 secs relative to L-citrulline

Row | Compound | inhibition [%]
2 | CSCC[C@H](NC(=O)CN)C(=O)NCC(=O)O (H-Gly-Met-Gly-OH) | < 15
3 | CC(C)C[C@H](N)C(=O)NCC(=O)NCC(=O)O (H-Leu-Gly-Gly-OH) | < 15
4 | CC(C)C[C@H](NC(=O)[C@@H](N)C(C)C)C(=O)O (H-Val-Leu-OH) | < 15
5 | COC(=O)[C@H](Cc1ccccc1)NC(=O)C[C@H](N)C(=O)O | > 30
6 | CC[C@H](C)[C@H](NC(=O)CN)C(=O)O (H-Gly-Ile-OH) | < 15
7 | NCCCC[C@H](N)C(=O)N[C@@H](Cc1c[nH]c2ccccc12)C(=O)O (H-Lys-Trp-OH) | < 15
8 | NC(=O)[C@H](Cc1ccccc1)NC(=O)[C@@H](N)CC(=O)O (H-Asp-Phe-NH2) | < 15
9 | N[C@@H](CS)C(=O)NCC(=O)O | < 15
10 | CC(=O)NCC(=O)N[C@@H](Cc1cnc[nH]1)C(=O)N[C@@H](CCCCN)C(=O)O (Ac-Gly-His-Lys-OH) | < 15
11 | C[C@@H](O)[C@H](NC(=O)OC(C)(C)C)C(=O)O | < 15
12 | NCC(=O)NCCC(=O)O | < 15

biological target: T1, General amino-acid permease GAP1 (Saccharomyces cerevisiae); assay: Noncompetitive inhibition of nitrogen-starved wild type sigma1278b yeast Gap1-mediated amino acid uptake at 5 mM after 60 secs relative to L-citrulline; conditions: not given

Row | Compound | inhibition [%]
13 | CC(C)C[C@H](NC(=O)[C@H](CC(C)C)NC(=O)[C@@H](N)CC(C)C)C(=O)O (H-Leu-Leu-Leu-OH) | 15
14 | CC(C)C[C@H](N)C(=O)N[C@H](CC(C)C)C(=O)O | > 30
15 | CSCC[C@H](NC(=O)[C@@H](N)CC(C)C)C(=O)O (H-Leu-Met-OH) | 15
16 | N=C(N)NCCC[C@H](NC(=O)[C@@H](N)CCCNC(=N)N)C(=O)Nc1ccc2ccccc2c1 (H-Arg-Arg-βNA) | > 30
17 | N=C(N)NCCC[C@H](N)C(=O)N[C@@H](Cc1ccccc1)C(=O)N[C@@H](Cc1ccccc1)C(=O)O (H-Arg-Phe-Phe-OH) | > 30
18 | CC(C)C[C@H](NC(=O)CCCCN)C(=O)O | > 30
19 | CC(C)C[C@H](NC(=O)[C@H](CC(C)C)NC(=O)CCN)C(=O)O (H-[βAla]-Leu-Leu-OH) | 15
20 | CC(N)C(=O)NC(Cc1ccccc1)C(=O)O (racemic) | > 30
21 | C[C@H](N)C(=O)NCC(=O)N[C@@H](C)C(=O)O (H-Ala-Gly-Ala-OH) | > 30
22 | CC(C)C[C@H](NC(=O)[C@@H](NC(=O)[C@@H](N)CC(C)C)C(C)C)C(=O)O (H-Leu-Val-Leu-OH) | 15
23 | C[C@H](NC(=O)[C@H](Cc1ccccc1)NC(=O)[C@@H](N)CCCNC(=N)N)C(=O)O (H-Arg-Phe-Ala-OH) | > 30
24 | N=C(N)NCCC[C@H](N)C(=O)NCC(=O)NCC(=O)O (H-Arg-Gly-Gly-OH) | > 30
25 | CC(C)C[C@H](NC(=O)[C@@H](N)CC(C)C)C(=O)N[C@@H](C)C(=O)O (H-Leu-Leu-Ala-OH) | 15
26 | CC(C)C[C@H](NC(=O)[C@H](C)N)C(=O)O (H-Ala-Leu-OH) | > 30
27 | CC(C)[C@H](NC(=O)CNC(=O)[C@H](C)N)C(=O)O (H-Ala-Gly-Val-OH) | > 30
28 | CSCC[C@H](NC(=O)[C@@H](N)CC(C)C)C(N)=O (H-Leu-Met-NH2) | > 30
29 | NC(N)=NCCC[C@H](N)C(=O)NCC(=O)O (H-Arg-Gly-OH) | > 30

biological target: T2, General amino-acid permease GAP1 (Saccharomyces cerevisiae, UniProt P19145); assay: Noncompetitive inhibition of nitrogen-starved wild type sigma1278b Gap1-mediated amino acid transport by Lineweaver-Burke plot analysis; conditions: not given
T2 sequence (P19145 whole entry): T1 sequence (whole entry)

Row | Compound | Ki [mM]
30 | N=C(N)NCCC[C@H](N)C(=O)N[C@@H](Cc1ccccc1)C(=O)N[C@@H](Cc1ccccc1)C(=O)O (H-Arg-Phe-Phe-OH) | 12
31 | CSCC[C@H](NC(=O)[C@@H](N)CC(C)C)C(N)=O (H-Leu-Met-NH2) | 5

biological target: T1, General amino-acid permease GAP1 (Saccharomyces cerevisiae); assay: Induction of nitrogen-starved wild type sigma1278b yeast Gap1-mediated […] activation at 10 mM; conditions: not given

Row | Compound | Activity
32 | N[C@@H](CC(=O)O)C(=O)O | Active
33 | N[C@@H](CO)C(=O)O | Active
34 | NCCCC[C@H](N)C(=O)O | inactive
35 | N=C(N)NCCC[C@H](N)C(=O)N[C@@H](Cc1ccccc1)C(=O)N[C@@H](Cc1ccccc1)C(=O)O (H-Arg-Phe-Phe-OH) | Active
36 | N[C@@H](Cc1c[nH]cn1)C(=O)O | inactive
37 | N[C@@H](CCC(=O)O)C(=O)O | Active
38 | N[C@@H](Cc1ccccc1)C(=O)O | Active
39 | C[C@@H](O)[C@H](N)C(=O)O | Active
40 | N[C@@H](Cc1c[nH]c2ccccc12)C(=O)O | inactive
41 | O=C(O)[C@@H]1CCCN1 | Active
42 | CSCC[C@H](NC(=O)[C@@H](N)CC(C)C)C(N)=O (H-Leu-Met-NH2) | inactive
